From US20240148821A1, “PHARMACEUTICAL USE OF CYCLIC PEPTIDE COMPOUND” (CHUGAI SEIYAKU KABUSHIKI KAISHA, priority 2021, published 2024)
Numbered stars: 1 amine (or outer) side, 2 acyl side, 3 side chain; on linkers, the order of the positions; unused ones are H or OH. Bridge positions count the residues as written; N and C are the ends. Square brackets hold non-standard residues; d marks the D form. Peptide text beside a SMILES is read from it. * marks the point of attachment. hPhe(3,5-F2-4-CF3) = N[C@@H](CCc1cc(F)c(C(F)(F)F)c(F)c1)C(=O)O; hPhe(3-Cl-4-CF3) = N[C@@H](CCc1ccc(C(F)(F)F)c(Cl)c1)C(=O)O; hPhe(3-F,4-CF3) = N[C@@H](CCc1ccc(C(F)(F)F)c(F)c1)C(=O)O; NMePhe(4-CF3) = CN[C@@H](Cc1ccc(C(F)(F)F)cc1)C(=O)O; NEtPhe(4-Me) = CCN[C@@H](Cc1ccc(C)cc1)C(=O)O; NMePhe(4-Me) = CN[C@@H](Cc1ccc(C)cc1)C(=O)O; NMedβ3hAla = C[C@H](CC(=O)[*:2])N(C)[*:1]; NMeGly(cPent) = CN[C@H](C(=O)O)C1CCCC1; NMeGly(cBu) = CN[C@H](C(=O)O)C1CCC1; NMeCha = CN[C@@H](CC1CCCCC1)C(=O)O; Hyp = O=C(O)[C@@H]1C[C@@H](O)CN1; NMeI = CC[C@H](C)[C@H](NC)C(=O)O; NMeD = CN[C@@H](CC(=O)O)C(=O)O; NMeL = CN[C@@H](CC(C)C)C(=O)O; NMeV = CN[C@H](C(=O)O)C(C)C; Azetidin(1-yl) = C1CN(*)C1; NMeAbu = CC[C@H](NC)C(=O)O; NMeC = CN[C@@H](CS)C(=O)O; NMeS = CN[C@@H](CO)C(=O)O; NPhGly = O=C(O)CNc1ccccc1; dPip = O=C(O)[C@H]1CCCCN1; NMeA = CN[C@@H](C)C(=O)O; NMeAib = CNC(C)(C)C(=O)O; Piperidide = C1CCN(*)CC1; Ac5c = NC1(C(=O)O)CCCC1; Aze = O=C(O)[C@@H]1CCN1; Isopentyl = CC(C)CC*; Sar = CNCC(=O)O

What was measured:
[1] = test system: Human pancreatic cancer cell line AsPC-1 (G12D mutation Kras); assay: AsPC-1 cell growth inhibition (AsPC-1 CGI); assay type: cell-based; details: read-out: AsPC-1 cell growth inhibition, 50% growth inhibitory concentration (IC50 value); 96 hours, CellTiter-Glo, values classified in ranges
Description: Test compounds were serially dilated with dimethyl sulfoxide, and 200 nL was then dispensed to a U-bottom 96-well plate using Labcyte Echo. […] The cell suspension was dispensed to a. plate containing a test compound at 100 μL per well and incubated at 37° C. in a 5% carbon dioxide gas incubator. 96 hours later, 80 μL of CellTiter-Glo (Promega) was added to each well and fluorescence was measured.

[2] = test system: non-small cell lung cancer cell line NC1-1441 with a KRAS mutation; assay: In vivo antitumor activity, mouse xenograft model, NCI-H441; details: NCI-H441 (NSCLC) xenograft, 14 days
Description: Tumor growth inhibition rate (TGI %)=(1−TV/CV)×100

[3] = test system: various cancer cell lines (Ras mutation or amplification); assay: Measurement of cell growth inhibitory activity against various cancer cell lines (CellTiter-Glo); assay type: cell-based, human
Description: Various cancer cell lines used were purchased from commercial suppliers. […] The cell suspension and culture medium supplemented with serum were dispensed to a plate containing the test compounds at 40 μL (384 well plate) or 200 μL (96 well plate) per well and incubated in a carbon dioxide gas incubator. […] Six days or seven days after the start of cultivation, 20 μL of CellTiter-Glo (Promega) was added to each well and fluorescence was measured.

[4] = target: protein-protein interaction between Kras and SOS1 (biotin-tagged human Kras loaded with GDP, His-tagged human SOS1) (Homo sapiens (Human), UniProt P01116, G12D); assay: Protein-protein interaction inhibition between Kras and SOS1 (KrasG12D-SOS PPI) using AlphaScreen; assay type: biochemical; details: AlphaScreen; biotin-tagged human Kras loaded with GDP, His-tagged human SOS1; read-out: KRAS G12D-SOS PPI IC50;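 also: kras produced in E. coli, Ni-coupled donor beads and streptavidin acceptor beads, excitation 680 nm with emission detected at 520–620 nm via singlet oxygen transfer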

Compound	IC50 [1]	IC50 [4]	other results
CCO[C@@H]1C[C@H]2C(=O)NC3(CCCC3)C(=O)N(C)[C@@H](C3CCCC3)C(=O)N(C)[C@H](C(=O)N(C)C)CC(=O)N(C)[C@@H](CC(C)C)C(=O)N[C@@H]([C@@H](C)CC)C(=O)N(C)[C@@H](C)C(=O)N3CC[C@H]3C(=O)N(C)[C@@H](CC3CCCCC3)C(=O)N(C)CC(=O)N[C@@H](CCc3cc(F)c(C(F)(F)F)c(F)c3)C(=O)N2C1 [Compound 1201, (5S,8S,11S,1S,18S,23aS,25R,29S,35S,37aS)-8-((S)-sec-butyl)-35-(cyclohexymethyl)-18-cyclopentyl-29-(3,5-difluoro-4-(trifluoromethyl)phenethyl)-25-ethoxy-11-isobutyl-N,N,5,6,12,16,19,33,36-nonamethyl-4,7,10,13,17,20,23,28,31,34,37-undecaoxotetratriacontahydro-2H,4H-spiro[azeto[2,1-u]pyrrolo[2,1-i][1,4,7,10,13,16,19,22,25,28,31]undecaazacyclotetratriacontine-21,1′-cyclopentane]-15-carboxamide] ([NMeL]I[NMeA][Aze][NMeCha][Sar][hPhe(3,5-F2-4-CF3)][Hyp](Et)[Ac5c][NMeGly(cPent)][NMeD]-NMe2; lactam N-11 (inferred); C-terminus assumed)	≤ 20 nM		TGI (%) ([2]; 3 mg/kg once daily): 68%; TGI (%) ([2]; 6 mg/kg once daily): 92%; TGI (%) ([2]; 10 mg/kg once daily): 104%; IC50 ([3]; A4/Fuk, Non-Hodgkin lymphoma, KRAS Amp): 0.65 nM; IC50 ([3]; A549, NSCLC, KRAS G12S): 0.25 nM; IC50 ([3]; AGS, Stomach, KRAS G12D): 0.48 nM; IC50 ([3]; AsPC-1, Pancreas, KRAS G12D): 0.84 nM; IC50 ([3]; HEC-151, Endometrium, NRAS G12D): 2.3 nM; IC50 ([3]; KURAMOCHI, Ovary, KRAS Amp): 2.63 nM; IC50 ([3]; LS 180, Colon, KRAS G12D): 1.32 nM; IC50 ([3]; MIA PaCa-2, Pancreas, KRAS G12C): 1.81 nM; IC50 ([3]; NCI-H441, NSCLC, KRAS G12V): 0.89 nM; IC50 ([3]; NCI-H929, Myeloma, NRAS G13D): 4.62 nM; IC50 ([3]; NOMO-1, AML, KRAS G13D): 4.9 nM; IC50 ([3]; PA-1, Ovary, NRAS G12D): 1.16 nM; IC50 ([3]; SW480, Colon, KRAS G12V): 9.6 nM
CC[C@H](C)[C@@H]1NC(=O)[C@H](C)N(C)C(=O)C[C@@H](C(=O)N2CCCCC2)N(C)C(=O)[C@H](C(C)C)N(C)C(=O)C2(CCCC2)NC(=O)[C@@H]2CCCN2C(=O)[C@H](CCc2ccc(C(F)(F)F)c(Cl)c2)NC(=O)[C@H]2CCCCN2C(=O)[C@H](CC2CCCCC2)N(C)C(=O)[C@@H]2CCCN2C(=O)CN(C)C1=O [Compound 823] ([NMeA]I[Sar]P[NMeCha][dPip][hPhe(3-Cl-4-CF3)]P[Ac5c][NMeV][NMeD]-Piperidide; lactam N-11)	> 500 nM	16 nM	
CC[C@H](C)[C@@H]1NC(=O)[C@H](CC(C)C)N(C)C(=O)CSC[C@@H](C(=O)N(C)C)N(C)C(=O)[C@H]([C@@H](C)CC)N(C)C(=O)C2(CCCC2)NC(=O)[C@@H]2CCCN2C(=O)[C@H](CCc2ccc(C(F)(F)F)c(Cl)c2)NC(=O)CN(C)C(=O)[C@H](Cc2ccc(C)cc2)N(C)C(=O)CN(C)C(=O)CN(C)C1=O [Compound 2178] ({CH2CO}-[NMeL]I[Sar][Sar][NMePhe(4-Me)][Sar][hPhe(3-Cl-4-CF3)]P[Ac5c][NMeI][NMeC]-NMe2; thioether N-11)	> 500 nM	160 nM	
CC[C@H](C)[C@@H]1NC(=O)[C@H](CC(C)C)N(C)C(=O)C[C@@H](C)N(C)C(=O)[C@H](CC(C)C)NC(=O)C(C)(C)N(C)C(=O)[C@H](CC(C)C)NC(=O)[C@H](CCc2ccc(C(F)(F)F)c(F)c2)NC(=O)CN(C)C(=O)[C@H](CC2CCCCC2)N(C)C(=O)CN(C)C(=O)CN(C)C1=O [Compound 883] (cyclo(I[Sar][Sar][NMeCha][Sar][hPhe(3-F,4-CF3)]L[NMeAib]L[NMedβ3hAla][NMeL]))	> 500 nM	49 nM	
CC[C@H](C)[C@@H]1NC(=O)[C@H](COCCC(C)C)N(C)C(=O)C[C@@H](C(=O)N2CCCCC2)N(C)C(=O)[C@H](C(C)C)N(C)C(=O)C2(CCCC2)NC(=O)[C@@H]2CCCN2C(=O)[C@H](CCc2ccc(C(F)(F)F)c(Cl)c2)NC(=O)CN(C)C(=O)[C@H](CC2CCCCC2)N(C)C(=O)[C@@H]2CCN2C(=O)[C@H](C)N(C)C1=O [Compound 661] ([NMeS](Isopentyl)I[NMeA][Aze][NMeCha][Sar][hPhe(3-Cl-4-CF3)]P[Ac5c][NMeV][NMeD]-Piperidide; lactam N-11)	> 500 nM	13 nM	
CC[C@H](C)[C@@H]1NC(=O)CSC[C@@H](C(=O)N(C)C)N(C)C(=O)[C@H]([C@@H](C)CC)N(C)C(=O)C2(CCCC2)NC(=O)[C@@H]2CCCN2C(=O)[C@H](CCc2ccc(C(F)(F)F)c(Cl)c2)NC(=O)CN(C)C(=O)[C@H](Cc2ccc(C)cc2)N(C)C(=O)CN(C)C(=O)CN(C)C1=O [Compound 2173, (3S,9S,18S,24R,27S,33S)-18,27-bis[(2S)-butan-2-yl]-3-[2-[3-chloro-4-(trifluoromethyl)phenyl]ethyl]—N,N,7,10,13,16,25,28-octamethyl-9-[(4-methylphenyl)methyl]-2,5,8,11,14,17,20,26.,29,32-decaoxospiro[22-thia-1,4,7,10,13,16,19,25,28,31-decazabicyclo[31.3.0]hexatriacontane-30,1-cyclopentane]-24-carboxamide] ({CH2CO}-I[Sar][Sar][NMePhe(4-Me)][Sar][hPhe(3-Cl-4-CF3)]P[Ac5c][NMeI][NMeC]-NMe2; thioether N-10)	> 500 nM	6 nM	
CC[C@H](C)[C@@H]1NC(=O)[C@H](C)N(C)C(=O)C[C@@H](C)N(C)C(=O)[C@H](C2CCC2)N(C)C(=O)C(C)(C)N(C)C(=O)CN(c2ccccc2)C(=O)[C@H](CCc2ccc(C(F)(F)F)c(Cl)c2)NC(=O)CN(C)C(=O)[C@H](CC2CCCCC2)N(C)C(=O)CN(C)C(=O)CN(C)C1=O [Compound 2145] (cyclo(I[Sar][Sar][NMeCha][Sar][hPhe(3-Cl-4-CF3)][NPhGly][NMeAib][NMeGly(cBu)][NMedβ3hAla][NMeA]))	> 500 nM	22 nM	
CC[C@H](C)[C@@H]1NC(=O)[C@H](CC(C)C)N(C)C(=O)C[C@@H](C(=O)N2CCCCC2)N(C)C(=O)[C@H](C(C)C)N(C)C(=O)C2(CCCC2)NC(=O)[C@@H]2CCCN2C(=O)[C@H](CCc2ccc(C(F)(F)F)c(Cl)c2)NC(=O)CN(C)C(=O)[C@H](CC)N(C)C(=O)[C@@H]2CCN2C(=O)[C@H](C)N(C)C1=O [Compound 1752] ([NMeL]I[NMeA][Aze][NMeAbu][Sar][hPhe(3-Cl-4-CF3)]P[Ac5c][NMeV][NMeD]-Piperidide; lactam N-11)	> 500 nM	17 nM	
CCO[C@@H]1C[C@H]2C(=O)NC3(CCCC3)C(=O)N(C)[C@@H]([C@@H](C)CC)C(=O)N(C)[C@H](C)CC(=O)N(C)[C@@H](CC(C)C)C(=O)N[C@@H]([C@@H](C)CC)C(=O)N(C)[C@@H](C)C(=O)N3CC[C@H]3C(=O)N(C)[C@@H](Cc3ccc(C(F)(F)F)cc3)C(=O)N(C)CC(=O)N[C@@H](CCc3ccc(C(F)(F)F)c(Cl)c3)C(=O)N2C1 [Compound 301] (cyclo([Ac5c][NMeI][NMedβ3hAla][NMeL]I[NMeA][Aze][NMePhe(4-CF3)][Sar][hPhe(3-Cl-4-CF3)][Hyp](Et)))	≤ 20 nM	0.74 nM	
CC(C)C[C@H]1C(=O)N[C@@H](C)C(=O)N(C)[C@@H](C)C(=O)N2CC[C@H]2C(=O)N(C)[C@@H](CC2CCCCC2)C(=O)N(C)CC(=O)N[C@@H](CCc2ccc(C(F)(F)F)c(Cl)c2)C(=O)N2CCC[C@H]2C(=O)NC2(CCCC2)C(=O)N(C)[C@@H](C(C)C)C(=O)N(C)[C@H](C(=O)N2CCCCC2)CC(=O)N1C [Compound 1780] ([NMeL]A[NMeA][Aze][NMeCha][Sar][hPhe(3-Cl-4-CF3)]P[Ac5c][NMeV][NMeD]-Piperidide; lactam N-11)	> 500 nM	120 nM	
CC[C@H](C)[C@@H]1NC(=O)[C@H](CC(C)C)N(C)C(=O)C[C@@H](C)N(C)C(=O)[C@H](CC(C)C)NC(=O)C(C)(C)N(C)C(=O)[C@H](CC(C)C)NC(=O)[C@H](CCc2ccc(C(F)(F)F)c(Cl)c2)NC(=O)CN(C)C(=O)[C@H](CC2CCCCC2)N(C)C(=O)CN(C)C(=O)CN(C)C1=O [Compound 1076] (cyclo(I[Sar][Sar][NMeCha][Sar][hPhe(3-Cl-4-CF3)]L[NMeAib]L[NMedβ3hAla][NMeL]))	> 500 nM	19 nM	
CC[C@H](C)[C@@H]1NC(=O)[C@H](CC(C)C)N(C)C(=O)C[C@@H](C(=O)N2CCC2)N(C)C(=O)[C@H](C2CCCC2)N(C)C(=O)C2(CCCC2)NC(=O)[C@@H]2CCCN2C(=O)[C@H](CCc2ccc(C(F)(F)F)c(Cl)c2)NC(=O)CN(C)C(=O)[C@H](Cc2ccc(C)cc2)N(CC)C(=O)[C@@H]2CCN2C(=O)[C@H](C)N(C)C1=O [Compound 506] ([NMeL]I[NMeA][Aze][NEtPhe(4-Me)][Sar][hPhe(3-Cl-4-CF3)]P[Ac5c][NMeGly(cPent)][NMeD]-{Azetidin(1-yl)}; lactam N-11)	≤ 20 nM	0.68 nM	
